Data as given in patent publication US20160123957A1, “Visualization of P-TEFb by Fluorescence Complementation” (The Regents of the University of California, priority 2014, published 2016).

Legend:
P-TEFb = test: BiFC assay, YC.P-TEFb coexpressed with YN.CTD in HEK293 cells; type: cell-based; conditions: for number of YFP-positive cells: versus normal culture conditions
Source text: Sequences encoding amino acids 1-154 (YN) and 155-238 (YC) of YFP were amplified and cloned in mammalian expression plasmids. The YN.CTD chimera was constructed by inserting DNA fragments from a 52X heptapeptide (52 X SEQ ID NO: 4 (SEQ ID NO: 7)) CTD coding plasmid with a linker sequence encoding a nuclear localization signal, SEQ ID NO: 5. The YC.PTEFb chimera was constructed by inserting DNA fragments corresponding to P-TEFb into the YC plasmid, with Cdk9 and CycT1 sequences genetically fused to express as a single chimeric polypeptide, that can form a functional P-TEFb molecule. A polynucleotide coding for the linker of SEQ ID NO: 6 was optionally utilized in the constructs, between P-TEFb or CTD sequences and their associated fluorophores fragments. All proteins contained an anti-c-Myc antibody epitope tag at the N termini, and their expression in cells was confirmed by Western blotting using an anti-c-Myc antibody.
(§1) HeLa or HEK293 cells growing in log phase were transfected with plasmid DNA encoding YN.CTD and YC.P-TEFb fusion proteins by use of a lipofection agent. Incorporation of YC.P-TEFb into the 7SK snRNP was confirmed by immunoprecipitation and Western blot analysis with antibodies to the components of the 7SK snRNP.
The BiFC assay was used to detect interactions between released free P-TEFb and its natural substrate, RNA polymerase II CTD. When YC.P-TEFb was coexpressed with YN.CTD in HEK293 cells under normal culture conditions, very few weakly YFP-positive cells were detected. […] Because the emission peak of YFP (527 nm) is similar to that of GFP (509 nm), the BiFC-positive cells appeared green. […] YC.P-TEFb was employed to monitor P-TEFb activation by BiFC in cells.
A time-dependent increase in BiFC signals was monitored by time-lapse fluorescence microscopic analysis. HEK293 cells expressing YC.P-TEFb and YN.CTD were treated with 5 micromolar SAHA, and fluorescent images were taken every 3 min. BiFC signals were detected by 30 min after the addition of SAHA and reached a peak at a time point between 75 and 90 min. At later times, more intense and punctate nuclear staining reflected the accumulation of active P-TEFb in nuclear speckles. This finding is consistent with previous observations of P-TEFb release by SAHA with a consideration of the time required for maturation of the fluorophore.

7SK snRNP = test: Immunoprecipitation and Western blot of 7SK snRNP fractions in cells expressing YC.P-TEFb; type: cell-based; conditions: HeLa or HEK293 cells, SAHA treatment
Source text: as §1

SMILES | time-dependent increase in BiFC signals (P-TEFb release) (P-TEFb; time-lapse fluorescence microscopy) | number of YFP-positive cells (P-TEFb) | amounts of YC.P-TEFb and endogenous CycT1 proteins in 7SK snRNP fractions (7SK snRNP) | levels of free P-TEFb (7SK snRNP) | time at which BiFC signals were detected after addition (P-TEFb; 5 micromolar, time-lapse fluorescence microscopy, images every 3 min) [min]
Nc1ncn([C@@H]2O[C@H](CO)[C@@H](O)[C@H]2O)c(=O)n1 [AzaC] | released P-TEFb | – | – | – | –
CC(=O)NCCCCCCNC(C)=O [HMBA] | – | increased significantly | – | – | –
O=C(CCCCCCC(=O)Nc1ccccc1)NO [SAHA] | – | increased significantly | reduced | increased | ≤ 30
CN1CCc2c(c3ccccc3n2Cc2ccc(C(=O)NO)cc2)C1 [tubastatin A] | – | did not increase | – | – | –
